Patent US20070253953A1, “Molecular Signature of the Pten Tumor Suppressor” (REGENTS OF THE UNIVERSITY OF CALIFORNIA, THE, priority 2003, published 2007)

Experiments:
PTEN mutated tumors = conditions: cited from earlier work
LNCaP cells = experiment: Cell cycle analysis of LNCaP cells treated with PI3K inhibitor; format: cell-based
From the text: FIG. 5. IGFBP2 plays a functional role in the PI3K-Akt pathway. (A) Cell cycle analysis of vector or IGFBP2 infected LNCaP cells treated with PI3K inhibitor (LY294002). (B and C) Clonagenic assay on wild-type or IGFBP2 knockout mouse embryonic fibroblasts with or without constitutive-active Akt expression (B), or myc expression (C). To examine if IGFBP2 is involved in the PI3K signaling, a pharmacological approach was employed. Consistent with the result in FIG. 3B, LNCaP cells have a high basal level of Akt activation. […] To examine if IGFBP2 plays a biological role for Akt function, clonogenic assay was performed using IGFBP2 knockout MEF (23). While Akt promoted colony formation in IGFBP2 wild type MEF (FIG. 5B, top and left panel), deletion of IGFBP2 abrogated this promoting activity. The requirement of IGFBP2 is specific to Akt because c-myc promoted colony formation in both cells (FIG. 5C). The inability of Akt to promote colony formation in IGFBP2 knockout MEF can be rescued by re-introduction of IGFBP2 (FIG. 5B).

IGFBP2 = conditions: patients treated (ref 28); cited from earlier work

In the case of `CO[C@H]1C[C@@H]2CC[C@@H](C)[C@@](O)(O2)C(=O)C(=O)N2CCCC[C@H]2C(=O)O[C@H]([C@H](C)C[C@@H]2CC[C@@H](OC(=O)C(C)(CO)CO)[C@H](OC)C2)CC(=O)[C@H](C)/C=C(\C)[C@@H](O)[C@@H](OC)C(=O)[C@H](C)C[C@H](C)/C=C/C=C/C=C/1C` [CCI-779], the “inhibition of PTEN mutated cancer cells” value (PTEN mutated tumors; PTEN mutated cancer cells) is given as “effectively inhibits” and the “sensitivity of tumors with PTEN mutations” value (PTEN mutated tumors; tumors with PTEN mutations (refs 22, 27)) is given as “more sensitive”.

With `O=c1cc(N2CCOCC2)oc2c(-c3ccccc3)cccc12` [LY294002] the “decrease of the percentage of cells in S phase” value (LNCaP cells) was 40%.

In the case of “IGF-l: insulin-like growth factor 1, a stimulus for Akt activation”, the “level of IGFBP2 in serum” value (IGFBP2) is given as “elevated level”.
